Test results taken from article PMC3708311 (Journal of medicinal chemistry, 2008).

Legend:
Lats2 = target: T1, Lats2 (Homo sapiens, UniProt Q9NRM7); assay: Ambit kinase screen, single-point, Lats2; type: binding; conditions: read-out: percentage inhibition Lats2
T1 sequence (Q9NRM7 1-1088): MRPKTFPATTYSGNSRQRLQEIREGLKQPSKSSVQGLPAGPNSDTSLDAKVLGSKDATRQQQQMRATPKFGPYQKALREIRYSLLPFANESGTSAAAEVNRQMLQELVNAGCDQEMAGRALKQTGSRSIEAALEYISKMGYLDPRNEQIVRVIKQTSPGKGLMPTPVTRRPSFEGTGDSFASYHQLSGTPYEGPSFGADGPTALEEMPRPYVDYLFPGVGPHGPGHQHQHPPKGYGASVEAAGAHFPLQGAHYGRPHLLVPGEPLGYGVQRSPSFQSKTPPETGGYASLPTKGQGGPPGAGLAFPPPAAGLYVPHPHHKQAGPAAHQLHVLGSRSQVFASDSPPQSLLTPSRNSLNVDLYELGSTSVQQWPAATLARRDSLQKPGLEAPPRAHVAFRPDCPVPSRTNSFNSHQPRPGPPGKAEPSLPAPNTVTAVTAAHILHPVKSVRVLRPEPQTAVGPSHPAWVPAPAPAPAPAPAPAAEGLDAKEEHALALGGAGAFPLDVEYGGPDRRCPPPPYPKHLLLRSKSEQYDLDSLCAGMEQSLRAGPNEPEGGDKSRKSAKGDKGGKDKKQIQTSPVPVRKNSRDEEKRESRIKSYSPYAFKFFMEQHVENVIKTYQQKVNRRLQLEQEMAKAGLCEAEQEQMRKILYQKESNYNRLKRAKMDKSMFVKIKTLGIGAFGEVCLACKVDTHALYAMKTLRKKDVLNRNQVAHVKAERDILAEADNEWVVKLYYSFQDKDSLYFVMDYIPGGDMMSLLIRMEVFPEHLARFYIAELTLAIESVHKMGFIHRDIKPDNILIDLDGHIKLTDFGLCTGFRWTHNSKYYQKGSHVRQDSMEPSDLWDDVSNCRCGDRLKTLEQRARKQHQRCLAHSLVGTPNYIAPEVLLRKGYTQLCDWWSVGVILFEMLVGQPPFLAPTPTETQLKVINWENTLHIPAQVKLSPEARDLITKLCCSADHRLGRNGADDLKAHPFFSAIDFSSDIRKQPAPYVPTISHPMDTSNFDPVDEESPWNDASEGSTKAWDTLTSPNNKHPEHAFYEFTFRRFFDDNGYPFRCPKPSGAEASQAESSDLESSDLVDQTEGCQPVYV

Clk4 = Clk4 (Homo sapiens, UniProt Q9HAZ1); assay: Ambit kinase screen, single-point, Clk4; type: binding; conditions: read-out: percentage inhibition Clk4
Clk1 = Clk1 (Homo sapiens, UniProt P49759); assay: Ambit kinase screen, single-point, Clk1; type: binding; conditions: read-out: percentage inhibition Clk1
adrenergic receptor α1b = target: T2, adrenergic receptor α1b (Homo sapiens, UniProt P35368); assay: nonkinase panel, adrenergic receptor α1b; type: binding
T2 sequence (P35368 1-520): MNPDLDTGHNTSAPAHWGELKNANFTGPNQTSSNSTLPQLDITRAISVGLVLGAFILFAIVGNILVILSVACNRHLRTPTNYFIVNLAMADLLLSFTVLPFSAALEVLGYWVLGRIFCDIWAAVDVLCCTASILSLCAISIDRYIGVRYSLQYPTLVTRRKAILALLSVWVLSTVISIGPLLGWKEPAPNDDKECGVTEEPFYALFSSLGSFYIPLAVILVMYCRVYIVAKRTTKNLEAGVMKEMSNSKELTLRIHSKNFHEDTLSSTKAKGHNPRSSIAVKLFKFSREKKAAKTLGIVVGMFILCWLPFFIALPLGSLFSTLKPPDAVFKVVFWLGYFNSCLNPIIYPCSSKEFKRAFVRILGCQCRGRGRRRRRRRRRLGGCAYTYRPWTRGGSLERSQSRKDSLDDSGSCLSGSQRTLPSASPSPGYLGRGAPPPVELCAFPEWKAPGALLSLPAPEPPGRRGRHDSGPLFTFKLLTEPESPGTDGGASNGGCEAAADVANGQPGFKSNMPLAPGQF

Clk2 = Clk2 (Homo sapiens, UniProt P49760); assay: Ambit kinase screen, single-point, Clk2; type: binding; conditions: read-out: percentage inhibition Clk2
adrenergic receptor α1a = target: T3, adrenergic receptor α1a (Homo sapiens, UniProt P35348); assay: nonkinase panel, adrenergic receptor α1a; type: binding
T3 sequence (P35348 1-466): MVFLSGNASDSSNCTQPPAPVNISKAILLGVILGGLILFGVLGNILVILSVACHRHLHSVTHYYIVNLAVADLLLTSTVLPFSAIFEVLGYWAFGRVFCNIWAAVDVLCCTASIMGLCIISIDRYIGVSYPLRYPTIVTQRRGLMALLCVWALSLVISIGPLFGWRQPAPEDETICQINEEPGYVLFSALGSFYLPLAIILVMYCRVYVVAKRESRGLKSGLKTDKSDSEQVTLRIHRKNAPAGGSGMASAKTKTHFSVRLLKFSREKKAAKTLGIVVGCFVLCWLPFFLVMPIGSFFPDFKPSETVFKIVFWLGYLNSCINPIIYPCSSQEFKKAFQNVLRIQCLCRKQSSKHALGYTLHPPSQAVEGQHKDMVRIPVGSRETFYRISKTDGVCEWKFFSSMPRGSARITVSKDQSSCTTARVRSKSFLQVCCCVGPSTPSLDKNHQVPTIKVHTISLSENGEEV

[1] = tested on: p-MLC in trabecular meshwork tissue; assay: Western blot analysis of p-MLC in TM tissue from perfused porcine eyes; conditions: 25 µM, perfused at 15 mmHg for 5 h
[2] = tested on: myosin light chain bisphosphorylation (ppMLC); assay: cell-based myosin light chain bisphosphorylation; conditions: read-out: ppMLC cell-based IC50
Akt3 = Akt3 (Homo sapiens, UniProt Q9Y243); assay: Ambit kinase screen, single-point, Akt3; type: binding; conditions: read-out: percentage inhibition Akt3
adrenergic receptor α2a = target: T4, adrenergic receptor α2a (Homo sapiens, UniProt P08913); assay: nonkinase panel, adrenergic receptor α2a; type: binding
T4 sequence (P08913 1-465): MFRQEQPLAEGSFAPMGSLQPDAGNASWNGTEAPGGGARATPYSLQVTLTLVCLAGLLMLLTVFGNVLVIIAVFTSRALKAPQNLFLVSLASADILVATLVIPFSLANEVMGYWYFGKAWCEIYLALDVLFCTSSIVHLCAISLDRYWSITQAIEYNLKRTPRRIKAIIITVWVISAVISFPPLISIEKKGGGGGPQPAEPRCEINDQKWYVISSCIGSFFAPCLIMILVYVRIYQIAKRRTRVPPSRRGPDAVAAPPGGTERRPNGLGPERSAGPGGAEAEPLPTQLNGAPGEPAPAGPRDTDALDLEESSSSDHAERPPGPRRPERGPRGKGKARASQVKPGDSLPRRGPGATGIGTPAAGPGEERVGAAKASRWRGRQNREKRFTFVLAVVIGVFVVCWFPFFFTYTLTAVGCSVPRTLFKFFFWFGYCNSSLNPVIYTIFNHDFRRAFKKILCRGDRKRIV

[3] = tested on: aqueous humor outflow facility from the trabecular meshwork; assay: ex vivo aqueous humor outflow facility in perfused enucleated porcine eyes; conditions: 25 µM continuous exposure, 2–5 h time points, p < 0.01, porcine eyes ex vivo
353 kinases = assay: profiling versus 353 kinases; type: binding; conditions: 3 µM
ROCK-II = ROCK-II (Homo sapiens, UniProt O75116); assay: ROCK-II biochemical assay; conditions: ROCK-II IC50, as given in text
Sequence of ROCK-II (O75116 whole entry, species assumed): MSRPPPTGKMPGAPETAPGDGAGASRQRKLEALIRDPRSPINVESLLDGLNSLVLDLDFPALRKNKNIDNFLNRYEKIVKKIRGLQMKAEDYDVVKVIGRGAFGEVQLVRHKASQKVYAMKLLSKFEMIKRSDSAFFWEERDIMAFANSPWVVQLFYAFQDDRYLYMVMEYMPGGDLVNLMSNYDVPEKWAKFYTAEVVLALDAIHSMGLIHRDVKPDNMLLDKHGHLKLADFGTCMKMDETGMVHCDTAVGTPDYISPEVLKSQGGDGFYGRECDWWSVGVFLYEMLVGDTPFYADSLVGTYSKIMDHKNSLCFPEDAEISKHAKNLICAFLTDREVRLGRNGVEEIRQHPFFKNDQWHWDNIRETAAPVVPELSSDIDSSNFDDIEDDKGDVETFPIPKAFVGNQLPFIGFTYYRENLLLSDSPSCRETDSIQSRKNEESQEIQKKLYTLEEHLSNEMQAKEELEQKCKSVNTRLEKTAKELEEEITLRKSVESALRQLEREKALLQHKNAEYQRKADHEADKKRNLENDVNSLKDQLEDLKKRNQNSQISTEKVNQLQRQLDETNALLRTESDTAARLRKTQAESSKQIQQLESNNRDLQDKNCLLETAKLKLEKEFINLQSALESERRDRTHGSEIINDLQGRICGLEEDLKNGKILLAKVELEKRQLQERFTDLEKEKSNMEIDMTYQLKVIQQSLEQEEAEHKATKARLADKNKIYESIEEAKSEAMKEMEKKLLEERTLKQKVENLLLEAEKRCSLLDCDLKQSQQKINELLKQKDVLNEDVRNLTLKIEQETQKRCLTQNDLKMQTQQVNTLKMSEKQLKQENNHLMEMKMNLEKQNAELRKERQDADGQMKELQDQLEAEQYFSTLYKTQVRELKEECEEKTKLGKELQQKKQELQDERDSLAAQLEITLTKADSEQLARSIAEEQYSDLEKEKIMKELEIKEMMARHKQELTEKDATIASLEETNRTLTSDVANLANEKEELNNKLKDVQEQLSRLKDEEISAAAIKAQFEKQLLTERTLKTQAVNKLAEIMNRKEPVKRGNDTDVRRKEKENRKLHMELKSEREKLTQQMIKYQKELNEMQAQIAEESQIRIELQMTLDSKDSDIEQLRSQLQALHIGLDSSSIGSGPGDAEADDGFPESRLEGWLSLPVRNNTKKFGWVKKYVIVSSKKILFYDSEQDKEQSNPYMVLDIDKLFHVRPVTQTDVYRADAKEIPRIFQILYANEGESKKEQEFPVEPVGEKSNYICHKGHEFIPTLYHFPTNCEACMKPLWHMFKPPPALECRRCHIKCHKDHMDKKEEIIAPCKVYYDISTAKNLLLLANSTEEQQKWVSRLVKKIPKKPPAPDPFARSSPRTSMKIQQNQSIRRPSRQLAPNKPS

Sequence of Clk2 (P49760 whole entry): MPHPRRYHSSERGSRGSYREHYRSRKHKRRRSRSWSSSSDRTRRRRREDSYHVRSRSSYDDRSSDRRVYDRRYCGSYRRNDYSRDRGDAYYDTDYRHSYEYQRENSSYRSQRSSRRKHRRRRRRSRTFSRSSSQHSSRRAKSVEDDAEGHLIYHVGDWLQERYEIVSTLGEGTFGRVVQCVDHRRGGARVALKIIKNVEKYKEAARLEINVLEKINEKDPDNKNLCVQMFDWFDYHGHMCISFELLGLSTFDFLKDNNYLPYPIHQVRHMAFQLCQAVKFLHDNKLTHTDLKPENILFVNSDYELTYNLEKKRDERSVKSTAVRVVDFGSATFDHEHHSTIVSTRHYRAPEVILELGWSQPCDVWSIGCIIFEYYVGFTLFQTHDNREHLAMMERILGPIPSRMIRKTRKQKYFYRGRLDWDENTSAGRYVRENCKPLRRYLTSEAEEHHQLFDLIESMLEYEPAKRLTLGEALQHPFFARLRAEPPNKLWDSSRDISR
Sequence of Clk4 (Q9HAZ1 whole entry): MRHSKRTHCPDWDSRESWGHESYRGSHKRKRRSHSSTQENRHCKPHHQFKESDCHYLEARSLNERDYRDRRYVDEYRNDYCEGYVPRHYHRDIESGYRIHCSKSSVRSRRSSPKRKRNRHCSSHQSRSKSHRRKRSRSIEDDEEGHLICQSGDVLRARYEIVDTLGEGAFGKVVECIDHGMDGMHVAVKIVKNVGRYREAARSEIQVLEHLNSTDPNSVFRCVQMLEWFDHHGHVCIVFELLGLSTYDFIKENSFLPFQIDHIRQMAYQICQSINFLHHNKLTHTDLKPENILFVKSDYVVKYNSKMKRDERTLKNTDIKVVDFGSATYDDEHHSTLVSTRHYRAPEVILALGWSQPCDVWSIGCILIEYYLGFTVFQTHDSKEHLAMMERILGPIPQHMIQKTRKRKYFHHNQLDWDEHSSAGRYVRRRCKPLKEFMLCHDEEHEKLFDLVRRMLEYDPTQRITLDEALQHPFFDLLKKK
Sequence of Akt3 (Q9Y243 whole entry): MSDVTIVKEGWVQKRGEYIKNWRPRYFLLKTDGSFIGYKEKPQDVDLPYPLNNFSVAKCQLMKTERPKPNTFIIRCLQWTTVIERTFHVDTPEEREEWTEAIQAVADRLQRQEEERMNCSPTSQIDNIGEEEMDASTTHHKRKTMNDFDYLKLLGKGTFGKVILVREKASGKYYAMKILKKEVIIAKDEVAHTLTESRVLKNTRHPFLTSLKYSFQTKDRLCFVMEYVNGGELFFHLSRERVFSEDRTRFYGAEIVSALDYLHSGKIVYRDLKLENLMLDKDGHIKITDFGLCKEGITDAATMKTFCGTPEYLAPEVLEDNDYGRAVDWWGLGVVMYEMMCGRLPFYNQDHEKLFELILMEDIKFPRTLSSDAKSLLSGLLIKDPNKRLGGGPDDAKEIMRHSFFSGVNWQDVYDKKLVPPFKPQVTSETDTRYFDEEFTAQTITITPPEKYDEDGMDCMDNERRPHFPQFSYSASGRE
Sequence of Clk1 (P49759 whole entry): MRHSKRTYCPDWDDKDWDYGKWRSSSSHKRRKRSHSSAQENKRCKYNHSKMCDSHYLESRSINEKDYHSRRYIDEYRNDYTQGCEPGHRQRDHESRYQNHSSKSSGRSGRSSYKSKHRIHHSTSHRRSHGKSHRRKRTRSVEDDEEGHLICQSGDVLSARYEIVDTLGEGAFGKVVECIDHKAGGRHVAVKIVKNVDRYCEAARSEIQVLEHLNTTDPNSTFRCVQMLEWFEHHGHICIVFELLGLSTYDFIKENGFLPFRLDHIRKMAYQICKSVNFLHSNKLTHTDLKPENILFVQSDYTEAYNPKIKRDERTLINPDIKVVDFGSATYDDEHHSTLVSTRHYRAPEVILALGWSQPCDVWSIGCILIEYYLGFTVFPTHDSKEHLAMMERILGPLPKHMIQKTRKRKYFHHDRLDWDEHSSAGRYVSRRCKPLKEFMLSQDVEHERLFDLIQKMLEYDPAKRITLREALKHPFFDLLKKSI

`CN(C)CCOc1cc(-c2cn[nH]c2)ccc1NC(=O)C1COc2ccccc2O1` (centres unmarked) [Compound 5] was tested, and the inhibition at 3 µM (Lats2) was > 50%, the inhibition at 3 µM (Clk4) was > 50% and the inhibition at 3 µM (Clk1) was > 50%. The IC50 (adrenergic receptor α1b) was ~1 µM, the inhibition at 3 µM (Clk2) was > 50% and the IC50 (adrenergic receptor α1a) was ~1 µM. The “inhibition of Rho kinase in the TM tissue (p-MLC Western blot)” value [1] was “greater than 90%”, the IC50 [2] was ~0.003 µM and the inhibition at 3 µM (Akt3) was > 50%. For the same molecule, the IC50 (adrenergic receptor α2a) was ~1 µM, the “increase of aqueous humor outflow facility” value [3] was 70–80% and the off-target hit rate (353 kinases; 353 kinases, hits = inhibition greater than 50%) was 1.4%. The “inhibition of all other kinases of the panel” value (353 kinases; single-point, no or very low inhibition) was < 10% and the IC50 (ROCK-II) was ~0.003 µM.
